Test results taken from patent US9789096B2, “Methods and compositions for selective and targeted cancer therapy” (Board of Regents of the University of Texas System, priority 2013, dated 2017).
Read-outs that look alike come from different tables or passages of the source.

Assays:
Assay type in all cases: cell-based, human
[1] = system: H1819; experiment: Cell viability dose-response, H1819; settings: Homo sapiens, NCI-H1819, Tables 3 and 4; read-out: IC50 (uM) vs indicated non-small cell lung cancer cell line H1819
Procedure: (§1) FIG. 6A. […] Cell viability is plotted vs. compound concentration. Compound was added to cells plated at 15% confluence in 96-well plates in RPMI-1640 media supplemented with 5% Fetal Bovine Serum and 2 mM L-Glutamine. After 4 days of incubation, ATP levels were measured using Cell Titer Glo (Promega). Data are presented as the average of 2 replicates ±SEM.
(§2) Selectivity may be measured by the half maximal inhibitory concentration (IC50), which, as used herein, is a measure of the effectiveness of a compound in killing cells. This quantitative measure indicates how much of a particular compound is needed to kill a particular cell population by half (e.g., as indicated by the amount of ATP). […] The IC50 can be determined by constructing a dose-response curve. The lower the IC50, the higher the potency, and the greater the difference between IC50 values for different cell lines (e.g., sensitive lines vs. insensitive lines, and sensitive lines vs. normal lines) the greater the selectivity. […]
(§3) With this information, we synthesized and tested a series of small molecules derived in conception from the oxalamide and chromone scaffold including N-acyl ureas, as shown in Tables 6-8. Each compound was tested in a 12-point dose-response study starting at 50 micromolar and decreasing in 3-fold increments to sub-nanomolar concentrations, in duplicate. Additionally, one or more additional cell line was tested in the same way.

[2] = system: H2009; experiment: Cell viability dose-response, H2009; settings: Homo sapiens; for IC50: NCI-H2009; for AC50: NCI-H2009, Table 8
Procedure: as §1, §2, §3

[3] = system: HCC44; experiment: Cell viability dose-response, HCC44; settings: Homo sapiens; for AC50: HCC44, Table 8, 12-point dose-response starting at 50 micromolar
Procedure: as §1, §2, §3

[4] = system: H2122; experiment: Cell viability dose-response, H2122; settings: Homo sapiens; for AC50: NCI-H2122, Table 8, 12-point dose-response starting at 50 micromolar
Procedure: as §1, §2, §3

[5] = Tables 3 and 4, read-out: IC50 (uM) vs indicated non-small cell lung cancer cell line H2009
[6] = 12-point dose-response starting at 50 micromolar
[7] = HCC44, 12-point dose-response starting at 50 micromolar, 3-fold increments, in duplicate, read-out: toxicity data, HCC44
[8] = 12-point dose-response starting at 50 micromolar, 3-fold increments, in duplicate, read-out: toxicity data, H2009
[9] = NCI-H2122, 12-point dose-response starting at 50 micromolar, 3-fold increments, in duplicate, read-out: toxicity data, H2122
[10] = NCI-H2122, Table 9, competitor, read-out: IC50 to H2122 cells
[11] = HCC44, Tables 3 and 4, read-out: IC50 (uM) vs indicated non-small cell lung cancer cell line HCC44
[12] = NCI-H2122, Tables 3 and 4, read-out: IC50 (uM) vs indicated non-small cell lung cancer cell line H2122

Row | Compound | AC50 [4] | IC50 [3, 7] | IC50 [2, 8] | IC50 [4, 9] | further results
1 | Nc1nc2cc([N+](=O)[O-])ccc2s1 [SW053525] |  |  |  |  | IC50 [1]: 182 µM; IC50 [2, 5]: 1530 µM
2 | COc1ccc(Oc2coc3cc(OCc4cnn(-c5ccccc5)c4)ccc3c2=O)cc1 [SW 208596-1] | 0.22 µM |  |  |  | AC50 [3]: 16.5 µM; AC50 [2, 6]: 16.5 µM
3 | COc1ccc(CCNC(=O)NC(=O)c2ccc(C(=O)NC3CCCC3)cc2)cc1 [SW208454-1-A] |  | ≥ 49.5 µM | ≥ 49.5 µM | 0.939 µM | 
4 | c1ccc(-n2cc(COc3ccc4cc(OCc5cnn(-c6ccccc6)c5)ccc4c3)cn2)cc1 [SW 208630-1] | ≥ 49.5 µM |  |  |  | AC50 [3]: 49.5 µM; AC50 [2, 6]: 49.5 µM
5 | COc1ccc(CCNC(=O)NC(=O)c2cccc(-c3cccc(Cl)c3)c2)cc1 [SW208392-1-A] |  | ≥ 49.5 µM | ≥ 49.5 µM | 6.71 µM | 
6 | O=c1c(-c2ccccc2F)coc2cc(OCc3cnn(-c4ccccc4)c3)ccc12 [SW208734] | ≥ 49.5 µM |  |  |  | AC50 [3]: 49.5 µM
7 | COc1ccc(CCNC(=O)NC(=O)c2ccc(Nc3ccccc3)cc2)cc1 [SW208561-1-A] |  | 0.03 µM | 0.88 µM | 0.08 µM | IC50 [4, 10]: 0.0763 µM
8 | COc1ccc(CCNC(=O)NC(=O)c2ccc(C(=O)N3CCN(C)CC3)cc2)cc1 [SW208414-1-A] |  | ≥ 49.5 µM | 5.05 µM | ≥ 49.5 µM | 
9 | O=c1c(C(O)c2ccccc2)coc2cc(OCc3cnn(-c4ccccc4)c3)ccc12 (stereo not drawn) [SW208833-1] | 0.216 µM |  |  |  | AC50 [3]: 9.86 µM; AC50 [2, 6]: 8.3 µM
10 | COc1ccc(CC(=O)Nc2ccc(C(=O)c3ccccc3)cc2)cc1 [SW208583-1-A] |  | 4.3 µM | ≥ 49.5 µM | 3.4 µM | 
11 | COc1ccc(CCC(=O)Nc2ccc(C(=O)c3ccccc3)cc2)cc1 [SW208466-1-A] |  | ≥ 49.5 µM | ≥ 49.5 µM | ≥ 49.5 µM | 
12 | COc1ccc(CCNC(=O)NC(=O)c2ccc(OC)cc2)cc1 [SW208402-1-A] |  | ≥ 49.5 µM | ≥ 49.5 µM | 1.03 µM | 
13 | COc1ccc(CCNC(=O)NC(=O)c2ccc(C(O)c3ccccc3)cc2)cc1 (stereo not drawn) [SW208460-1-A] |  | 0.084 µM | ≥ 49.5 µM | 0.097 µM | IC50 [4, 10]: 0.0456 µM
14 | COc1ccc(CCNC(=O)NC(=O)c2ccc(C(=O)N(C)C)cc2)cc1 [SW208455-1-A] |  | ≥ 49.5 µM | 16.5 µM | ≥ 49.5 µM | IC50 [4, 10]: 0.8 µM
15 | O=c1c(Oc2ccccc2Br)coc2cc(OCc3cnn(-c4ccccc4)c3)ccc12 [SW 208585-1] | 0.1 µM |  |  |  | AC50 [2, 6]: 35 µM
16 | COc1ccc(CCNC(=O)NC(=O)c2cccc(-c3ccncc3)c2)cc1 [SW208396-1-A] |  | ≥ 49.5 µM | 4.95 µM | 2.23 µM | 
17 | COc1ccccc1C(=O)c1ccc(C(=O)NC(=O)NCCc2ccc(O)cc2)cc1 [SW208580-1-A] |  | 8.08 µM | 2.14 µM | 9.46 µM | IC50 [4, 10]: 0.8 µM
18 | O=C(Nc1nc(-c2ccccc2)cs1)c1ccc(C(=O)c2ccccc2)cc1 [SW209018] |  |  |  |  | IC50 [3, 11]: 49.5 µM; IC50 [2, 5]: 14.8 µM; IC50 [4, 12]: 4.73 µM
19 | O=c1c(C2=CCCCC2)coc2cc(OCc3cnn(-c4ccccc4)c3)ccc12 [SW208764-1] | ≥ 49.5 µM |  |  |  | AC50 [3]: 49.5 µM; AC50 [2, 6]: 49.5 µM
20 | O=c1c(Oc2ccccc2F)coc2cc(OCc3cn(-c4ccccc4)nn3)ccc12 [SW208232] | ≥ 49.5 µM |  |  |  | AC50 [3]: 49.5 µM; AC50 [2, 6]: 49.5 µM
21 | COc1ccc(CCNC(=O)NC(=O)c2ccc(C(=O)N3CCOCC3)cc2)cc1 [SW208408-1-A] |  | ≥ 49.5 µM | 46.9 µM | ≥ 49.5 µM | 
22 | COc1ccc(CCNC(=O)NC(=O)c2ccc(COc3ccccc3)cc2)cc1 [SW208458-1-A] |  | 0.008 µM | 0.099 µM | 0.01 µM | IC50 [4, 10]: 0.00425 µM
23 | O=c1c(Oc2ccccc2Cl)coc2cc(OCc3cnn(-c4ccccc4)c3)ccc12 [SW 208589-1] | 0.12 µM |  |  |  | AC50 [3]: 49.5 µM; AC50 [2, 6]: 4.76 µM
24 | COc1ccc(CCCCC(=O)Nc2ccc(C(=O)c3ccccc3)cc2)cc1 [SW208480-1-A] |  | 1.41 µM | ≥ 49.5 µM | 2.51 µM | 
25 | O=C(Nc1nc2ccc(O)cc2s1)c1ccc(C(=O)c2ccccc2)cc1 [SW202864-1] |  |  |  |  | IC50 [3, 11]: 38.6 µM; IC50 [4, 10]: 0.256 µM; IC50 [4, 12]: 30.8 µM
26 | COc1cccc(-c2coc3cc(OCc4cnn(-c5ccccc5)c4)ccc3c2=O)c1 [SW208733] | 0.74 µM |  |  |  | AC50 [3]: 49.5 µM
27 | C#CCOc1ccc2nc(NC(=O)c3ccc(C4(C(F)(F)F)N=N4)cc3)sc2c1 [SW208700-1] |  |  |  |  | IC50 [3, 11]: 49.5 µM; IC50 [4, 12]: 7.92 µM
